In patent publication EP0145177A2, “Chemotherapeutic agents based on rhizoxin” (priority 1983, dated 1985):

Experiments:
[1] = test system: ascites tumor MH-134 cells due to the cancer of the liver; assay: Antitumor activity against ascites tumor MH-134 in mice (Test Example 1); format: in vivo, C3H/He mice; details: for Average life span: once a day for 10 days from 24 hours after inoculation, control 17.2 days; for T/C (%): once a day for 10 days, ratio of average life span, treated/control x 100
Procedure: 1 x 10^6 of ascites tumor MH-134 cells due to the cancer of the liver were intraperitoneally inoculated into C3H/He mice (8 weeks old, each group 6 mice). Rhizoxin was dissolved with the addition of a small quantity of ethyl alcohol (not more than 1 volume percent on the basis of the total volume of the final solution), and further dissolved in a 0.85 X aqueous physiological sodium chloride solution containing 0.05 % of Tween 20. This solution was aseptically filtered, and 24 hours after the tumor inoculation, the solution was intraperitoneally administered to the mice continually for 10 days at a rate of 0.2 ml/mouse once a day. The antitumor activity of Rhizoxin was evaluated on the basis of the ratio (T/C) x 100 wherein T is the average life span of the Rhizoxin administered groups and C is the average life span of the control group.

Leukemia L-1210 cells = assay: Antitumor activity against leukemia L-1210 in mice (Test Example 2); format: in vivo, CDF1 mice; details: daily for 4 days; for ILS (%): increase in life span over control
Procedure: Leukemia L-1210 cells (1 x 10^5 cells) were intraperitoneally inoculated into CDF1 mice. Intraperitoneal administration of Rhizoxin was started 24 hours after the tumor inoculation and continued daily for 4 days. The result is shown in Table 2 in terms of a percentage of an increase in the life span of the treated mice over that of the control mice (ILS).

B-16 melanoma = assay: Tumor growth inhibition of B-16 melanoma in mice (Test Example 3); format: in vivo, BDF1 mice; details: daily for 4 days, based on tumor weight from tumor diameter
Procedure: Tumor fragments of B-16 melanoma were subcutaneously inoculated into BDF1 mice. Intraperitoneal administration of Rhizoxin was begun 24 hours after the tumor inoculation and continued daily for 4 days.
The-result is shown in Table 3 in terms of a percentage of tumor growth inhibition based on the tumor weight which can be obtained from the measurement of the tumor diameter.

leukemia P-388 cells = assay: Antitumor activity against Vincristine sensitive leukemia P-388 in mice (Test Example 4); format: in vivo, CDF1 mice; details: for ILS (%): P-388
From the text: (§1) Vincristine resistant or sensitive leukemia P-388 cells (1 x 10^6 cells) were intraperitoneally inoculated into CDF1 mice. Intraperitoneal administration of Rhizoxin and Vincristine was made on 1, 6 and 9 days after the tumor inoculation. The result is shown in Table 4 in terms of a percentage of an increase in the average life span of the treated mice over that of the control mice.

[2] = test system: Vincristine resistant leukemia P-388 cells (P-388/VCR); assay: Antitumor activity against Vincristine resistant leukemia P-388 in mice (Test Example 4); format: in vivo, CDF1 mice; details: for ILS (%): P-388/VCR; for effectiveness against Vincristine resistant leukemia P-388: summary in words of Table 4
From the text: as §1

[3] = Toxicity by intraperitoneal injection into mice; details: mouse, in vivo, ip, C3H/He mice, read-out: LDS 0 value
Procedure: The toxicity of Rhizoxin was examined by the intraperitoneal injection of said compound into C3H/He mice, and as the LDS 0 value was above 5 mg/kg, it may be mentioned that the value is far above the dosage usually given in treatment.

Solubility in solvents = format: physicochemical
rice seedling = assay: Induction of the characteristic symptoms of rice seedling blight; format: in vivo; details: Oryza sativa; extremely low concentration at which the action is still seen; read-out: concentration that can induce the characteristic symptoms of rice seedling blight
Procedure: (§2) Rhizoxin has an action which can induce the characteristic symptoms of rice seedling blight, even at an extremely low concentration (10 ng/ml).

plants other than rice = assay: Growth of the root of plants other than rice; details: in vivo
Procedure: as §2

plant pathogenic fungi = assay: Growth of plant pathogenic fungi; format: cell-based
Procedure: as §2

[4] = test system: plant pathogenic bacteria; assay: Multiplication of plant pathogenic bacteria; format: cell-based; details: bacteria that are prokaryotes
Procedure: as §2

[5] = 15 mcg/Kg/day intraperitoneally
[6] = 150 mcg/Kg/day intraperitoneally
[7] = 0.25 mg/Kg/day intraperitoneally
[8] = 0.5 mg/Kg/day intraperitoneally
[9] = 1.0 mg/Kg/day intraperitoneally
[10] = 0.75 mg/Kg/day intraperitoneally on 1, 6 and 9 days after inoculation
[11] = 1.0 mg/Kg/day intraperitoneally on 1, 6 and 9 days after inoculation
[12] = 1.5 mg/Kg/day intraperitoneally on 1, 6 and 9 days after inoculation
[13] = 2.0 mg/Kg/day intraperitoneally on 1, 6 and 9 days after inoculation

CO[C@@H](/C(C)=C/C=C/C(C)=C/c1coc(C)n1)[C@@H](C)[C@@H]1C[C@H](O)[C@@]2(C)O[C@@H]2/C=C/[C@@H](C)[C@H]2C[C@H](CC(=O)O2)C[C@@H]2O[C@H]2C(=O)O1 [Rhizoxin]
Average life span [1, 5]: 31.8 days
T/C (%) [1, 5]: 185%
Average life span [1, 6]: 47.8 days
T/C (%) [1, 6]: 278%
Change in body weight (g) (day 1-7) (Leukemia L-1210 cells; [7]): +0.4 g
ILS (%) (Leukemia L-1210 cells; [7]): 43%
Change in body weight (g) (day 1-7) (Leukemia L-1210 cells; [8]): -0.7 g
ILS (%) (Leukemia L-1210 cells; [8]): 67%
Change in body weight (g) (day 1-7) (Leukemia L-1210 cells; [9]): -2.9 g
ILS (%) (Leukemia L-1210 cells; [9]): 81%
ILS (%) (Leukemia L-1210 cells; 2.0 mg/Kg/day intraperitoneally): toxic
Tumor growth inhibition (%) (B-16 melanoma; [7]): 38%
Tumor growth inhibition (%) (B-16 melanoma; [8]): 68%
Tumor growth inhibition (%) (B-16 melanoma; [9]): 62%
ILS (%) (leukemia P-388 cells; 0.5 mg/Kg/day intraperitoneally on 1, 6 and 9 days after inoculation): 46.2%
ILS (%) (leukemia P-388 cells; [10]): 65.6%
ILS (%) (leukemia P-388 cells; [11]): 82.9%
ILS (%) (leukemia P-388 cells; [12]): 123.7%
ILS (%) (leukemia P-388 cells; 3.0 mg/Kg/day intraperitoneally on 1, 6 and 9 days after inoculation): toxic
effectiveness against leukemia P-388 (leukemia P-388 cells; summary in words of Table 4): effective
ILS (%) [2, 10]: 28.2%
ILS (%) [2, 11]: 35.9%
ILS (%) [2, 12]: 57.3%
ILS (%) [2, 13]: 61.2%
ILS (%) ([2]; 4.0 mg/Kg/day intraperitoneally on 1, 6 and 9 days after inoculation): toxic
effectiveness against Vincristine resistant leukemia P-388 [2]: clearly effective
LD50 [3]: > 5 mg/kg
Solubility in solvents (Solubility in solvents; benzene, chloroform, acetone, alcohol, etc.): Easily soluble
Solubility in solvents (Solubility in solvents; water, n-hexane): sparingly soluble
minimal effective concentration (rice seedling): 0.01 µg/mL
action on the growth of the root of the plants other than rice (plants other than rice): check the growth of the root
action on the growth of plant pathogenic fungi (plant pathogenic fungi): inhibits the growth
action on the multiplication of the plant pathogenic bacteria [4]: no recognizable action

CC[C@]1(O)C[C@H]2CN(CCc3c([nH]c4ccccc34)[C@@](C(=O)OC)(c3cc4c(cc3OC)N(C=O)[C@H]3[C@@](O)(C(=O)OC)[C@H](OC(C)=O)[C@]5(CC)C=CCN6CC[C@]43[C@@H]65)C2)C1 [Vincristine, reference compound]
ILS (%) [2, 11]: 6.8%
ILS (%) [2, 13]: toxic
effectiveness against Vincristine resistant leukemia P-388 [2]: not affected
